According to patent US7074789B2, “Kinase inhibitors” (Amgen Inc., priority 1999, dated 2006):
Read-outs that look alike come from different tables or passages of the source.

Assays:
Format in all cases: biochemical
[1] = biological target: T1, Lyn (Homo sapiens, UniProt P07948); assay: Kinase inhibition assay (33P transfer), Lyn; details: Table 6, Lyn-1 kinase inhibition class
T1 construct: Kinases are expressed as either kinase domains or full length constructs; made in house
Description: (§1) The inhibitor compounds described herein are screened in the following manner. Kinases suitable for use in the following protocol to determine kinase activity of the compounds described herein include, -but are not limited to: Lck, Lyn, Src, Fyn, Syk, Zap-70, Itk, Tec, Btk, EGFR, ErbB2, Kdr, Flt-1, Flt-3, Tek, c-Met, InsR, and AKT.
(§2) Kinases are expressed as either kinase domains or full length constructs fused to glutathione S-transferase (GST) or polyHistidine tagged fusion proteins in either E. colior Baculovirus-High Five expression systems. They are purified to near homogeneity by affinity chromatography essentially as previously described (Lehr et al., 1996; Gish et al., 1995). In some instances, kinases are co-expressed or mixed with purified or partially purified regulatory polypeptides prior to measurement of activity.
(§3) Kinase activity and inhibition are measured essentially by established protocols (Braunwalder et al., 1996). Briefly, The transfer of ^33PO4 from ATP to the synthetic substrates poly(Glu, Tyr) 4:1 or poly(Arg, Ser) 3:1 attached to the bioactive surface of microtiter plates serves as the basis to evaluate enzyme activity. After an incubation period, the amount of phosphate transferred is measured by first washing the plate with 0.5% phosphoric acid, adding liquid scintillant, and then counting in a liquid scintillation detector. The IC50 is determined by the concentration of compound that causes a 50% reduction in the amount of […] incorporated onto the substrate bound to the plate.

[2] = biological target: T2, Fyn (Homo sapiens, UniProt P06241); assay: Kinase inhibition assay (33P transfer), Fyn; details: read-out: Fyn-1
T2 construct: Kinases are expressed as either kinase domains or full length constructs; made in house
Description: as §1, §2, §3

[3] = biological target: T3, Flt-1 (Homo sapiens, UniProt P17948); assay: Kinase inhibition assay (33P transfer), Flt-1
T3 construct: Kinases are expressed as either kinase domains or full length constructs; made in house
Description: as §1, §2, §3

[4] = biological target: T4, FGFR1 (Homo sapiens, UniProt P11362); assay: Kinase inhibition assay (33P transfer), FGFR1; details: read-out: FGFR1-1
T4 construct: Kinases are expressed as either kinase domains or full length constructs; made in house

[5] = biological target: T5, Src (Homo sapiens, UniProt P12931); assay: Kinase inhibition assay (33P transfer), Src; details: Table 6, Src-1 kinase inhibition class
T5 construct: Kinases are expressed as either kinase domains or full length constructs; made in house
Description: as §1, §2, §3

[6] = biological target: T6, c-Met (Homo sapiens, UniProt P08581); assay: Kinase inhibition assay (33P transfer), c-Met; details: Table 2, kinase inhibition class; read-out: Met-1
T6 construct: Kinases are expressed as either kinase domains or full length constructs; made in house
Summary of the method: (§4)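 Recombinant kinase domains or full-length GST- or His-tagged constructs, from E. coli or baculovirus/High Five cells, sometimes with regulatory polypeptides. Transfer of 33P from ATP to plate-bound poly(Glu,Tyr) 4:1 or poly(Arg,Ser) 3:1 counted by liquid scintillation after phosphoric acid wash; IC50 is the concentration halving incorporation.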

[7] = biological target: T7, Zap-70 (Homo sapiens, UniProt P43403); assay: Kinase inhibition assay (33P transfer), Zap-70; details: read-out: Zap-1
T7 construct: Kinases are expressed as either kinase domains or full length constructs; made in house
T7 sequence (P43403 1-619): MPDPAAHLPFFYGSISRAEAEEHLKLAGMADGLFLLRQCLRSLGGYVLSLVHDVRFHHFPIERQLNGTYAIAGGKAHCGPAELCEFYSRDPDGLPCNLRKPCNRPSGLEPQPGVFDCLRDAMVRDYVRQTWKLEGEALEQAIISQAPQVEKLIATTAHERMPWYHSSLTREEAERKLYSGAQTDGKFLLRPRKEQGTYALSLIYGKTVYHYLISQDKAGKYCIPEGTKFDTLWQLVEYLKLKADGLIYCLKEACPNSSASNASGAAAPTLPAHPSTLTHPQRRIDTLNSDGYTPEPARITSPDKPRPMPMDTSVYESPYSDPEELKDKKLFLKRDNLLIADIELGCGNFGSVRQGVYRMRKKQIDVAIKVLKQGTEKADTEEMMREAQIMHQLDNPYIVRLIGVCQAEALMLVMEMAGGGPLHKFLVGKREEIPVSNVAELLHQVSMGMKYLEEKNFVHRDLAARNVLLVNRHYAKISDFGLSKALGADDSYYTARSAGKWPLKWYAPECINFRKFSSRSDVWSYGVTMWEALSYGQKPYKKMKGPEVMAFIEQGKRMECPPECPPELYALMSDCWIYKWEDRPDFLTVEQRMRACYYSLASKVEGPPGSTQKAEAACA
Summary of the method: (§5)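 Filterless plate radiometric format: immobilized poly(Glu,Tyr) 4:1 or poly(Arg,Ser) 3:1, 33P-labelled ATP, tagged recombinant kinase (some with regulatory partners). Incorporated label counted after phosphoric acid wash.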

[8] = biological target: T8, Tek (Homo sapiens, UniProt Q02763); assay: Kinase inhibition assay (33P transfer), Tek; details: read-out: Tek-1
T8 construct: Kinases are expressed as either kinase domains or full length constructs; made in house
Summary of the method: as §4

[9] = biological target: T9, Kdr (Homo sapiens, UniProt P35968); assay: Kinase inhibition assay (33P transfer), Kdr; details: read-out: KDR-1
T9 construct: Kinases are expressed as either kinase domains or full length constructs; made in house
Summary of the method: as §5

[10] = biological target: T10, EGFR (Homo sapiens, UniProt P00533); assay: Kinase inhibition assay (33P transfer), EGFR; details: Table 2, kinase inhibition class; read-out: EGFR-1
T10 construct: Kinases are expressed as either kinase domains or full length constructs; made in house
Summary of the method: as §4

[11] = biological target: T11, ErbB4 (Homo sapiens, UniProt Q15303); assay: Kinase inhibition assay (33P transfer), ErbB4; details: read-out: ErbB4-1
T11 construct: Kinases are expressed as either kinase domains or full length constructs; made in house

[12] = biological target: T12, PDGFRB (Homo sapiens, UniProt P09619); assay: Kinase inhibition assay (33P transfer), PDGFRB; details: read-out: PDGFRB-1
T12 construct: Kinases are expressed as either kinase domains or full length constructs; made in house

[13] = biological target: T13, AKT (Homo sapiens, UniProt Q9Y243); assay: Kinase inhibition assay (33P transfer), AKT; details: Table 2, kinase inhibition class; read-out: AKT3-1
T13 construct: Kinases are expressed as either kinase domains or full length constructs; made in house
Summary of the method: as §5

[14] = biological target: T14, Lck (Homo sapiens, UniProt P06239); assay: Kinase inhibition assay (33P transfer), Lck; details: read-out: Lck-1
T14 construct: Kinases are expressed as either kinase domains or full length constructs; made in house
Summary of the method: as §5

[15] = biological target: T15, Hck-1 (Homo sapiens, UniProt P08631); assay: Kinase inhibition assay (33P transfer), Hck; details: Table 6, Hck-1 kinase inhibition class
T15 construct: Kinases are expressed as either kinase domains or full length constructs; made in house

[16] = biological target: T16, Itk (Homo sapiens, UniProt Q08881); assay: Kinase inhibition assay (33P transfer), Itk; details: read-out: Itk-1
T16 construct: Kinases are expressed as either kinase domains or full length constructs; made in house
T16 sequence (Q08881 1-620): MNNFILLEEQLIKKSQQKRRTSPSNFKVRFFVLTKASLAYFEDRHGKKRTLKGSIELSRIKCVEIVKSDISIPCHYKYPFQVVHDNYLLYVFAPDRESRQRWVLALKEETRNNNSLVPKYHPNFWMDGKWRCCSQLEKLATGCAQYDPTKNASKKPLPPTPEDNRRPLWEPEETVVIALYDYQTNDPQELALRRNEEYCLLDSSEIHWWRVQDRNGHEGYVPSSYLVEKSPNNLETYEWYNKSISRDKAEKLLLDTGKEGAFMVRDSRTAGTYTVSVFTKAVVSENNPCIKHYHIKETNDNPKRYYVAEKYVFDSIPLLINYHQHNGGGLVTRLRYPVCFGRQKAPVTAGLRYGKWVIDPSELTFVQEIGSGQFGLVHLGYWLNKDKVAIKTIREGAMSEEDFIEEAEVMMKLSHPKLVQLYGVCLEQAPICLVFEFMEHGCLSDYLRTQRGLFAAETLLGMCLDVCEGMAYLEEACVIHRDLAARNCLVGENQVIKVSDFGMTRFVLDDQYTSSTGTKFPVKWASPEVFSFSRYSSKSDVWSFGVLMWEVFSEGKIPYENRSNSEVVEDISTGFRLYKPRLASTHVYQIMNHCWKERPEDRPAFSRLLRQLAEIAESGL
Summary of the method: as §4

[17] = biological target: T17, IGFR-1 (Homo sapiens, UniProt P08069); assay: Kinase inhibition assay (33P transfer), IGFR-1; details: Table 2, kinase inhibition class
T17 construct: Kinases are expressed as either kinase domains or full length constructs; made in house

[18] = biological target: T17, IGFR-1; assay: Kinase inhibition assay, IGFR-1 (Table 2); details: Table 2, kinase inhibition class
[19] = biological target: T18, ErbB2 (Homo sapiens, UniProt P04626); assay: Kinase inhibition assay (33P transfer), ErbB2; details: read-out: ErbB2-2
T18 construct: Kinases are expressed as either kinase domains or full length constructs; made in house
Summary of the method: as §4

T18 sequence (P04626 23-1255, species assumed): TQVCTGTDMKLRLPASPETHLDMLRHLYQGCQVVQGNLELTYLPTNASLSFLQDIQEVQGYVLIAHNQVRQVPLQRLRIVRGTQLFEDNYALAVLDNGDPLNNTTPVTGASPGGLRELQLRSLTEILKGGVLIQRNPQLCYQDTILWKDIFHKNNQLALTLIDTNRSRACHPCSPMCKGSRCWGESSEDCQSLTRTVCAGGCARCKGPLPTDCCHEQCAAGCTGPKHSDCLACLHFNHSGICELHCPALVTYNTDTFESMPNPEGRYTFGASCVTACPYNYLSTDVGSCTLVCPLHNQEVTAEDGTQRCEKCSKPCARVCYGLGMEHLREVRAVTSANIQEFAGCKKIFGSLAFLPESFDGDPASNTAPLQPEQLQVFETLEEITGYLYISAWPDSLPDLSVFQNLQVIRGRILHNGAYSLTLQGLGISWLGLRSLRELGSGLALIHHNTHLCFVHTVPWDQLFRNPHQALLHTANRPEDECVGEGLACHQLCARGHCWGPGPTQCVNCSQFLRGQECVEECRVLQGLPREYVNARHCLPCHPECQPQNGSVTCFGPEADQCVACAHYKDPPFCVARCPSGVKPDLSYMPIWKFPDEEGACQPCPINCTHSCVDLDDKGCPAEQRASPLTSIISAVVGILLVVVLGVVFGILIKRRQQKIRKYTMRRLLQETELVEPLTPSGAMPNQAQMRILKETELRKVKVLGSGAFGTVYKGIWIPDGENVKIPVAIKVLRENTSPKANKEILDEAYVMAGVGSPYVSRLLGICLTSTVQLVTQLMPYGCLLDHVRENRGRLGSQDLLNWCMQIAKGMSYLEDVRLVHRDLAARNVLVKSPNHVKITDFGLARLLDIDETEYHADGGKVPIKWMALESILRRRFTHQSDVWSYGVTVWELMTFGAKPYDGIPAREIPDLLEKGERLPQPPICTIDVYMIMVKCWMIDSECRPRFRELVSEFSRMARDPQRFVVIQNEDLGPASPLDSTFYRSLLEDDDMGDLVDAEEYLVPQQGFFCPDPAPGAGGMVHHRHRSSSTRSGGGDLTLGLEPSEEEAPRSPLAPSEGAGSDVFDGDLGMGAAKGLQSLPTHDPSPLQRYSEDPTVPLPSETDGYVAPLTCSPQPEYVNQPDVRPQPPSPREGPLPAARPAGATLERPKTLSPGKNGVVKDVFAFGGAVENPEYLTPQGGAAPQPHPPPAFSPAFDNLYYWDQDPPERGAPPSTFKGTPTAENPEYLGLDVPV
T10 sequence (P00533 25-1210, species assumed): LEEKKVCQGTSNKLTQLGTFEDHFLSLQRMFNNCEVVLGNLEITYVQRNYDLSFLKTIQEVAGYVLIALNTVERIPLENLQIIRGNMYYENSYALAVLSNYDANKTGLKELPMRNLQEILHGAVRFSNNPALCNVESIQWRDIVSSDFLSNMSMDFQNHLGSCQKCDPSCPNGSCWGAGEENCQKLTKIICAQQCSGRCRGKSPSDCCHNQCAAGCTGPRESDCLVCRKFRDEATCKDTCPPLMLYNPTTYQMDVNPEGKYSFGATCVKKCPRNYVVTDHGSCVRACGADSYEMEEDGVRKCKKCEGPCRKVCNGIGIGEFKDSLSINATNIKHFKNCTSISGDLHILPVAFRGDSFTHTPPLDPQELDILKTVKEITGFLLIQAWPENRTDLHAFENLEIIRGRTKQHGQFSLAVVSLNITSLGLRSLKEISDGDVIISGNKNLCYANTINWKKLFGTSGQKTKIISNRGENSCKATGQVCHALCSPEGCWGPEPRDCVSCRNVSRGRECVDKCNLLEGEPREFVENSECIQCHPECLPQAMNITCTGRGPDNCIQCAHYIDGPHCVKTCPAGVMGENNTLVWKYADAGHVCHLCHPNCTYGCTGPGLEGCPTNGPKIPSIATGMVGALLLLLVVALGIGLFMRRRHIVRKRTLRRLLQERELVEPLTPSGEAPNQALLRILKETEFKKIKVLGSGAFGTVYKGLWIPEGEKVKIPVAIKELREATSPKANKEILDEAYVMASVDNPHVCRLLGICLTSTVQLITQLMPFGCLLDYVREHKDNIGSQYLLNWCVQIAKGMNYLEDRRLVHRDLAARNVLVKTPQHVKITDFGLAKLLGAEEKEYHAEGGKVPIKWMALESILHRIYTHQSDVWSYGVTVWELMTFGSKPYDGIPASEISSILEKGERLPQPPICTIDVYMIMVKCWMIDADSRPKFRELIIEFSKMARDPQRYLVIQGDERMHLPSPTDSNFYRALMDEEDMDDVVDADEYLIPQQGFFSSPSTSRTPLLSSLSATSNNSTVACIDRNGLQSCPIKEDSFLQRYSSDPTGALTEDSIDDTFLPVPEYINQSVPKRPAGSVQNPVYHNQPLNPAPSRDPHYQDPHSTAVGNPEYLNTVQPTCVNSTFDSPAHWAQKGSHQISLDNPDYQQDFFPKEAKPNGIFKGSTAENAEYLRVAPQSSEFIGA
T9 sequence (P35968 20-1356, species assumed): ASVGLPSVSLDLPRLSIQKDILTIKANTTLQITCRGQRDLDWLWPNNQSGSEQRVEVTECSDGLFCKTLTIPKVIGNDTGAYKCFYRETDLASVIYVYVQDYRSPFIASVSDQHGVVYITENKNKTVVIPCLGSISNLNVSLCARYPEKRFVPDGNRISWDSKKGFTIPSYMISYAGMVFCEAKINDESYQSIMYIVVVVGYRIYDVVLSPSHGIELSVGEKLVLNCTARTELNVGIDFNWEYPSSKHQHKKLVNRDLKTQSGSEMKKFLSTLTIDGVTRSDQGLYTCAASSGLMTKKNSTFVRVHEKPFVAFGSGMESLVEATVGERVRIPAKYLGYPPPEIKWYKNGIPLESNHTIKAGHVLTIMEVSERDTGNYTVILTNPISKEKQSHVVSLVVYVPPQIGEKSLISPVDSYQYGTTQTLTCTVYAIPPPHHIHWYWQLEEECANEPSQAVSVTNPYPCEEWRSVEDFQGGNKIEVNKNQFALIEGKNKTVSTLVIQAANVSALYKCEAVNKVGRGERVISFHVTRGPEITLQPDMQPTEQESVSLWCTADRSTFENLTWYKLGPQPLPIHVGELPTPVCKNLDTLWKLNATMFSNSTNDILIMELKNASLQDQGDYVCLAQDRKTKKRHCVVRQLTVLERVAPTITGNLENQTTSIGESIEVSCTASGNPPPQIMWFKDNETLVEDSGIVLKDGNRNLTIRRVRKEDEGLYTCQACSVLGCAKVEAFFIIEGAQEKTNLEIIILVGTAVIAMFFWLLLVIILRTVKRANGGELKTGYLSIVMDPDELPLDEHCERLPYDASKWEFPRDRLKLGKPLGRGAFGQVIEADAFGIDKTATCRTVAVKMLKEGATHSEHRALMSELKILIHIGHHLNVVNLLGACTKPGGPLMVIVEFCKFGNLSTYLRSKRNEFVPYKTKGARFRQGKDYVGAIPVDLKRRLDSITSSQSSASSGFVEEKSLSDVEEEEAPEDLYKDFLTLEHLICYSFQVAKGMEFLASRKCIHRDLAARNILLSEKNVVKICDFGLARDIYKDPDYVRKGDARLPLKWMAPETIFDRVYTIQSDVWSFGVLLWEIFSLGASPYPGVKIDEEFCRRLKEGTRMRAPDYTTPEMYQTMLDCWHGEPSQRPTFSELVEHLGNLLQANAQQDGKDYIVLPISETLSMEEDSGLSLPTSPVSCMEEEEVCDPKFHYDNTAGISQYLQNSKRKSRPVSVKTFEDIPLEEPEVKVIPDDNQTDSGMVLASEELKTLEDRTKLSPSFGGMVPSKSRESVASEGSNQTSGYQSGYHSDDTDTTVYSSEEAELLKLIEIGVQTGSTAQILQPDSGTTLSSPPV
T6 sequence (P08581 25-1390): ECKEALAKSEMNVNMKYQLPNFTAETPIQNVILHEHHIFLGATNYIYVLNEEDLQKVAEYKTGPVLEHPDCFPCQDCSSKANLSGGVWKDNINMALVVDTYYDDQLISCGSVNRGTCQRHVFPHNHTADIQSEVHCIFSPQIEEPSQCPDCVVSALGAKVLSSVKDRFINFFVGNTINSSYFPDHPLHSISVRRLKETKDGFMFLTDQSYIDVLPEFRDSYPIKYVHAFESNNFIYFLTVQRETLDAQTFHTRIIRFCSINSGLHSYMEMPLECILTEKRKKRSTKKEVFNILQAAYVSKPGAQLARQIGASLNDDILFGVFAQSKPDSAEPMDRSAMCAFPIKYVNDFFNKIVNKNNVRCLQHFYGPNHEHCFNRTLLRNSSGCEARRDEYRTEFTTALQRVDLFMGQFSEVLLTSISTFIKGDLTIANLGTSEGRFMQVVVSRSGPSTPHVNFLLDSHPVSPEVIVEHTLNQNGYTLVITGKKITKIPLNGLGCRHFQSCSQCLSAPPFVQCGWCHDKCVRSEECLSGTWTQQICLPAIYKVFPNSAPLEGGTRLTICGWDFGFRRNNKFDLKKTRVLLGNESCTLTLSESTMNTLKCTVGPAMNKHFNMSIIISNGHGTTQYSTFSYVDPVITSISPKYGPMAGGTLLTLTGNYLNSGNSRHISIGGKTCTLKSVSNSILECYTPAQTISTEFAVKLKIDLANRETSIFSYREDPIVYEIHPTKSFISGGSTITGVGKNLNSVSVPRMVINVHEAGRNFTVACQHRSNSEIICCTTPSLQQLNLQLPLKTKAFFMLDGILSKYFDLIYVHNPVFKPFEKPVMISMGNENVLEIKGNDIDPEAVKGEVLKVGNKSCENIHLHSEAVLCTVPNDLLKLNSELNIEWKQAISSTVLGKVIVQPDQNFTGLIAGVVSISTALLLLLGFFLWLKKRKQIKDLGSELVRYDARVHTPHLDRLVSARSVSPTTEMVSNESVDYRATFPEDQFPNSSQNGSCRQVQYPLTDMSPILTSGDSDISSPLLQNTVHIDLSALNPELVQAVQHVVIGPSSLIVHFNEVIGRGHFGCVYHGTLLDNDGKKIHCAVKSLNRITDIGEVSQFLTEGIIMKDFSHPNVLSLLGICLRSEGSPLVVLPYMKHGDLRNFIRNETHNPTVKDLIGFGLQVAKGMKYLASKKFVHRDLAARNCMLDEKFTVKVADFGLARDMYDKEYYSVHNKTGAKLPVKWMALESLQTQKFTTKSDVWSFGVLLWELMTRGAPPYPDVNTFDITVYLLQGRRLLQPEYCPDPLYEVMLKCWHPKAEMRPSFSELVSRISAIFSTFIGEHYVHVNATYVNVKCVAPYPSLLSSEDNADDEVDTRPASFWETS

| SMILES | IC50 [6] | IC50 ([7]; Table 3) | IC50 [8] | IC50 ([9]; Table 3) | IC50 [10] | IC50 [12] | IC50 [13] | IC50 ([14]; Table 3) | IC50 ([16]; Table 3) | IC50 [7] | IC50 [18] | IC50 [19] | IC50 [16] | IC50 [9] | IC50 [14] | other results |
| --- | --- | --- | --- | --- | --- | --- | --- | --- | --- | --- | --- | --- | --- | --- | --- | --- |
| COc1cc(Nc2ncnc(-n3c(NCc4ccncc4)nc4ccccc43)n2)cc(OC)c1OC [Compound 413] | > 9.29 µM | > 9.29 µM | > 9.29 µM | < 0.826 µM | > 9.29 µM | < 0.826 µM | > 9.29 µM | > 9.29 µM | > 9.29 µM |  |  |  |  |  |  | IC50 [1]: 826 to 4950 nM; IC50 [2]: 826 to 4950 nM; IC50 [3]: 0.826 to 4.95 µM; IC50 [4]: < 0.826 µM; IC50 [5]: 826 to 4950 nM; IC50 [11]: > 9.29 µM; IC50 [15]: > 9.29 µM |
| COc1ccc(Nc2ncnc(Nc3ccc(OC)c(OC)c3)n2)cc1OC [Compound 63] | > 11.7 µM | > 11.7 µM | > 11.7 µM | 1.04 to 6.26 µM | > 11.7 µM | 1.04 to 6.26 µM | > 11.7 µM | > 11.7 µM | > 11.7 µM |  |  |  |  |  |  | IC50 [17]: > 11.7 µM |
| COc1cc(Nc2ncnc(-n3cccc3)n2)cc(OC)c1OC [Compound 182] | 10.7 to 13.7 µM | > 13.7 µM |  | < 1.22 µM | > 13.7 µM | > 13.7 µM |  | 7.33 to 10.7 µM | > 13.7 µM |  |  |  |  |  |  | IC50 [3]: > 13.7 µM; IC50 [4]: > 13.7 µM |
| COc1cc(Nc2ncnc(N3CCCc4cc(C)ccc43)n2)cc(OC)c1OC [Compound 498] |  |  | 8.59 to 11 µM |  | < 0.982 µM |  | > 11 µM |  |  | > 11 µM | > 11 µM | 0.982 to 5.89 µM | > 11 µM |  |  | IC50 [1]: < 982 nM; IC50 [5]: < 982 nM; IC50 [11]: 0.982 to 5.89 µM; IC50 [15]: > 11 µM |
| COc1ccc(CNc2ncccc2-c2ncnc(Nc3cc(OC)c(OC)c(OC)c3)n2)nc1 [Compound 1085] | > 9.46 µM |  | > 9.46 µM |  | > 9.46 µM | 0.841 to 5.05 µM | > 9.46 µM |  |  | > 9.46 µM | > 9.46 µM | > 9.46 µM | > 9.46 µM | < 0.841 µM | 0.841 to 5.05 µM |  |
| COc1cc(C)c(Nc2ncnc(Nc3cc(-c4ccccc4)n[nH]3)n2)cc1OC [Compound 978] | < 0.991 µM |  | > 11.2 µM |  | 0.991 to 5.95 µM | > 11.2 µM | > 11.2 µM |  |  | > 11.2 µM | < 0.991 µM | 0.991 to 5.95 µM | 5.95 to 8.68 µM | 0.991 to 5.95 µM | 0.991 to 5.95 µM |  |
| COc1cc(Nc2ncnc(-n3ncc(-c4ccccc4)c3N)n2)cc(OC)c1OC [Compound 522] | 5.72 to 8.34 µM |  | 8.34 to 10.7 µM |  | 5.72 to 8.34 µM | 5.72 to 8.34 µM | > 10.7 µM |  |  | > 10.7 µM | 0.954 to 5.72 µM | 8.34 to 10.7 µM | 0.954 to 5.72 µM | 5.72 to 8.34 µM | 0.954 to 5.72 µM |  |
| CCc1ccc(Nc2ncnc(-n3c(N)nc4ccccc43)n2)cc1 [Compound 657] | 7.24 to 10.6 µM |  | 1.21 to 7.24 µM |  | 1.21 to 7.24 µM | 7.24 to 10.6 µM | 7.24 to 10.6 µM |  |  | 1.21 to 7.24 µM | 1.21 to 7.24 µM | 1.21 to 7.24 µM | 7.24 to 10.6 µM | 1.21 to 7.24 µM | 7.24 to 10.6 µM |  |
| COc1cc(Nc2ncnc(-n3nc(-c4ccccc4)cc3N)n2)cc(OC)c1OC [Compound 520] | > 10.7 µM |  | > 10.7 µM |  | > 10.7 µM | > 10.7 µM | > 10.7 µM |  |  | > 10.7 µM | 0.954 to 5.72 µM | > 10.7 µM | 0.954 to 5.72 µM | > 10.7 µM | 0.954 to 5.72 µM |  |
